Values quoted from earlier work, collected in patent US11040008B2, “Pharmaceutical compositions of meloxicam” (Slayback Pharma LLC, priority 2018, dated 2021).

What was measured:
[1] = oral, fasted steady state conditions

- Time of second meloxicam concentration peak post-dose [1]: twelve to fourteen
- Solubility in water: practically insoluble in water
Compound: Cc1cnc(NC(=O)C2=C(O)c3ccccc3S(=O)(=O)N2C)s1 [meloxicam, 4-hydroxy-2-methyl-N-(5-methyl-2-thiazolyl)-2H-1,2-benzothiazine-3-carboxamide-1,1-dioxide]
